Measurements reported in PMC5691054, “An unexpected protein interaction promotes drug resistance in leukemia” (Nature Communications, 2017).
Entries after “also recorded” stand apart in the source; their conditions may differ. Where no end group is shown, it is not given here.

What was measured:
HEK293 cells [1] = assay: 6MP cytotoxicity / drug resistance in transfected HEK293 cells; format: cell-based, Human; conditions: for IC50: Homo sapiens, HEK293, 96 h, HEK293 expressing ABCC4, CellTiter Glo
Procedure: (§1) HEK293 cells transfected with ABCC4 or ABCC4ΔC in the presence or absence of MPP1, MO7e, and Meg01 cells were treated with 10 concentrations of 6MP, ranging from 1 to 1000 µM, for 96 h. Cell viability analysis was determined using CellTiter Glo (Promega). Where applicable, cell penetrating peptides conjugated to the PDZ-binding motif of ABCC4 (labeled either ABCC4-PDZ or ABCC4ΔC) were added to the cells at 20 μM. Media was changed daily and new ABCC4-PDZ/ABCC4ΔC peptide and 6MP was added. IC50 values were calculated using GraphPad Prism.

MO7e cells [2] = assay: 6MP cytotoxicity in MO7e cells and CRISPR knock-outs; format: cell-based, Human; conditions: for IC50: Homo sapiens, Mo7e, 96 h, CellTiter Glo, triplicate; for decrease of 6MP resistance vs. parental cells: MO7e
Procedure: as §1
CRISPR-Cas9 plasmids containing gRNAs against ABCC4 ([…]) and MPP1 ([…]) were purchased from Sigma Aldrich. MO7e cells were transiently transfected with constructs containing the gRNA, Cas9 Nickase, and a flurophore. Forty-eight hours after transfection, cells were sorted for fluorescent positive cells and single cells were sorted into individual wells of a 96-well plate. Single-sorted cells were allowed to expand and deletion of the gene of interest was verified by immunoblotting.
The Meg01, MO7e, and ABCC4 KO MO7e cell lines were plated at 1500 cells per well in a 96-well plate. Cells were treated with 10 concentrations of Antimycin A (Santa Cruz) ranging from 0.01 to 1000 μM. Cell viability was determined using CellTiter Glo (Promega). Meg01, MO7e, and ABCC4 KO MO7e cells in the presence or absence of 10 nM Antimycin A were treated with 10 concentrations of 6MP, ranging from 1 to 1000 µM, for 96 h. Cell viability analysis was determined using CellTiter Glo. IC50 values were calculated using GraphPad Prism.

HEK293 cells [3] = assay: Etoposide cytotoxicity in transfected HEK293 cells; format: cell-based, Human; conditions: for IC50: Homo sapiens, triplicate
MO7e cells [4] = assay: Etoposide cytotoxicity in MO7e cells and CRISPR knock-outs; format: cell-based, Human; conditions: for IC50: Homo sapiens, Mo7e, triplicate
[5] = tested on: primary AML cells from adult patients; assay: Annexin V/PI apoptosis in primary AML patient samples; format: cell-based, Human
Procedure: Primary AML cells from adult patients were treated with either vehicle, 50 or 100 µM cytarabine, 10 nM Antimycin A, or the combination of 50 or 100 µM cytarabine + 10 nM Antimycin A for 4 h. Post treatment, the cells were washed with fresh media (2×) and resuspended in the absence or presence of 10 nM Antimycin A and cultured for an additional 44 h (for a total treatment time of 48 h). The cells were then stained with Annexin V-fluorescein isothiocyanate (FITC)/propidium iodide (PI) apoptosis Kit (Beckman Coulter; Brea, CA, USA). The stage of apoptotic cells (Annexin V-positive, but early or late apoptosis) is identified by the proportion of AnnexinV+/PI− (early apoptosis) and Annexin V+/PI+ (late apoptosis) cells. This experiment was performed once in triplicates (presented as average ± SEM) due to the limited sample availability. Patient samples were selected based on the availability of an adequate number of cells to perform the assay.

MO7e cells [6] = assay: 6MP cytotoxicity in MO7e cells and CRISPR knock-outs; format: cell-based, Human; conditions: cell permeable peptide (10 μM), in words
[7] = tested on: ABCC4 plasma membrane localization in HEK293 cells expressing MPP1 and GFP-ABCC4; assay: ABCC4 plasma membrane localization (confocal microscopy); format: cell-based, Human
Procedure: Peptides containing or lacking the ABCC4-PDZ motif were fused with the cell penetrating HIV-TAT peptide. These peptides were tested for their effect on ABCC4 plasma membrane localization. HEK293 cells were transfected with MPP1 and GFP-ABCC4 and the ER protein, calreticulin. The plasma membrane was counter-stained with wheat-germ-agglutinin (WGA) labeled with Alexa647 after treatment with either ABCC4-PDZ or ABCC4ΔC peptide.
HEK293 cells were seeded on chambered coverglass slides (LAB-TEK) 48 h before transfection with plasmid DNA (250 ng) encoding pAc-GFP-ABCC4 or ABCC4ΔC and pCal plasmid encoding the ER resident protein calreticulin conjugated to RFP (Origene). Transfection was performed using Lipofectamine 2000 as per the manufacturer’s instructions. Immediately prior to visualizing cells, cells were counterstained with the plasma membrane marker wheat-germ agglutinin (WGA) conjugated to Alexa-647 (Invitrogen). All confocal microscopy images were acquired on a 3i Marianas system configured with an Yokagowa CSU-X spinning disk confocal microscope utilizing a ×63 Zeiss objective, using the 488 (GFP), 561 (RFP), and 660 (far red) laser lines.

[8] = tested on: murine hematopoietic progenitor cells (HPC); assay: Hematopoietic progenitor cell serial replating in methylcellulose; conditions: HPC transduced with MPP1; cell penetrating peptide, fresh at each replating; n = 3
Procedure: In these experiments, littermates were used as controls. Bone marrow from 8- to 12-week-old female virgin C57/BL6 mice were harvested. Progenitors were enriched by incubating with lineage-PE antibodies (CD4, CD8, Mac1, Gr1, NK1.1, B220, and Ter119) and separated using AutoMACS Pro (Miltenyi). Hematopoetic progenitor cells were cultured in the presence of recombinant murine SCF (rmSCF), IL3 (rmIL3), and IL6 (rmIL6) (Peprotech; all 50 ng/ml) for 48 h before transduction on RetroNectin (Takara) coated plates. Retroviral supernatant containing media was produced by transient transfection of HEK293T cells with MSCV based retroviral plasmids encoding either MYCN-ires-YFP or MPP1-ires-CFP as previously described[35]. Forty-eight hours post transduction, cells were harvested, sorted for either YFP or CFP expression, and plated on methylcellulose containing IL3, IL6, SCF, and EPO (Stem Cell Technologies). Colonies were counted after 7 days growth at 37 °C, harvested, and replated.

[9] = molecular target: T1, MPP1 and ABCC4 protein interaction (Homo sapiens, UniProt Q00013); assay: Competition of ABCC4 C-terminal peptides with MPP1–ABCC4 complex (GST-ABCC4-C100 pull-down, immunoblot); format: biochemical; conditions: in words; in vitro competition experiment
T1 construct: For full-length expression of MPP1, the pTriX vector containing an N-terminal His tag was used to create the His-S-MPP1 fusion protein; made in house; host or cells: E. coli
T1 sequence (Q00013 1-466): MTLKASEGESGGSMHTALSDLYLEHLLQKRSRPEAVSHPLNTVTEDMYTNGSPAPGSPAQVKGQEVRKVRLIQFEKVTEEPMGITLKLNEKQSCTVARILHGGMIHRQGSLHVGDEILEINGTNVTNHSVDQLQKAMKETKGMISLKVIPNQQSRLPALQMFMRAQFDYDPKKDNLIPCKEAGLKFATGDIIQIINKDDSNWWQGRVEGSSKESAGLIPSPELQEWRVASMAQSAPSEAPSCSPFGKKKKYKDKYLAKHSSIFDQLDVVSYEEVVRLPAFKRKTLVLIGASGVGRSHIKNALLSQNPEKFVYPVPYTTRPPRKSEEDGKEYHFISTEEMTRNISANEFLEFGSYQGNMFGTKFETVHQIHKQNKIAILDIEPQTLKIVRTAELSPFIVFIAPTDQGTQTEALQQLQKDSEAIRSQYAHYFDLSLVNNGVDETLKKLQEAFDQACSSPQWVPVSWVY
Procedure: C-terminal peptides of ABCC4 containing the carboxyl-terminal 15 amino acids ([…]-COOH, ABCC4-PDZ) or carboxyl-terminal 11 amino acids lacking the PDZ-binding motif ([…]-COOH, ABCC4ΔC) conjugated to the cell penetrating peptide TAT ([…]) were chemically synthesized by the Hartwell Center for Bionformatics and Biotechnology at SJCRH. ABCC4 peptides (1–4 μM) were mixed with purified GST-ABCC4-C100 (50 nM) (Supplementary Fig. 10 ) before addition of His-S-MPP1 (3.6 nM) and allowed to mix for 2 h at 24 °C. The GST-ABCC4-C100 was immobilized on glutathione beads, and washed 3 times. Protein complexes were eluted from the beads, separated by SDS-PAGE, and immunoblotted with rabbit anti-MPP1.

ABCC4 (MO7e lysates) = assay: Immunoprecipitation of ABCC4 from MO7e lysates by purified MPP1 fragments; format: binding, Human; conditions: purified fragment with MO7e lysates, n = 3, in words
Excerpt: For full-length expression of MPP1, the pTriX vector containing an N-terminal His tag was used to create the His-S-MPP1 fusion protein. Proteins were expressed in E. coli and purified using a nickel column (Supplementary Fig. 9). The production of cDNA constructs containing various defined segments of MPP1 has been described previously. The cDNA fragments containing either the N-terminal domain of MPP1 (amino acids 1–83), the PDZ domain (amino acids 83–160) or the C-terminal domain, containing both the SH3 and GUK domains (amino acids 161–466), were PCR amplified and subcloned into the pGex vector. All clones were fully sequenced to confirm their identity and reading frame. The GST-fusion proteins were purified using a glutathione column.

Molecule: Sc1ncnc2nc[nH]c12 [6MP, 6-mercaptopurine]
- effect of MPP1 on survival of cells expressing ABCC4 lacking the PDZ motif (HEK293 cells [1]; HEK293, ABCC4ΔC, in words): no additional survival benefit
- increase of 6MP IC50 by ABCC4 expression (HEK293 cells [1]; HEK293 ABCC4 vs. empty vector (Ctrl)): 2.6 fold
- IC50 (HEK293 cells [1]; end of the shift with increasing MPP1 (P < 0.05), 96 h): 608 µM
- IC50 (HEK293 cells [1]; start of the shift with increasing MPP1, 96 h): 184 µM
- IC50 (MO7e cells [2]; MO7e + Antimycin A (10 nM), Fig. 6a): 13.6 µM
- IC50 (MO7e cells [2]; MO7e ABCC4 KO + Antimycin A (10 nM), Fig. 6a): 22.2 µM
- IC50 (MO7e cells [2]; MO7e ABCC4 KO, Fig. 4f): 27.6 µM
- IC50 (MO7e cells [2]; MO7e DKO (ABCC4 and MPP1), Fig. 4f): 10.9 µM
- IC50 (MO7e cells [2]; MO7e MPP1 KO, Fig. 4f): 27.7 µM
- IC50 (MO7e cells [2]; MO7e parental, Fig. 4f): 135 µM
- IC50 (MO7e cells [2]; without Antimycin A, Fig. 6a): 135 µM
- decrease of 6MP resistance vs. parental cells (MO7e cells [2]; MPP1 deletion alone): over fourfold
- decrease of 6MP resistance vs. parental cells (MO7e cells [2]; deletion of ABCC4): over fourfold

Molecule: COc1cc([C@@H]2c3cc4c(cc3[C@@H](O[C@@H]3O[C@@H]5CO[C@@H](C)O[C@H]5[C@H](O)[C@H]3O)[C@H]3COC(=O)[C@H]23)OCO4)cc(OC)c1O [Etoposide, etoposide]
- effect of ABCC4 and/or MPP1 on etoposide sensitivity (HEK293 cells [3]; HEK293, in words): not affected by MPP1; also recorded: not affected by the presence of either ABCC4 and/or MPP1
- IC50 (HEK293 cells [3]; HEK293, HEK293 ABCC4 + MPP1): 1.2 µM
- IC50 (HEK293 cells [3]; HEK293, HEK293 ABCC4): 1.3 µM
- IC50 (HEK293 cells [3]; HEK293, HEK293 ABCC4ΔC + MPP1): 1.2 µM
- IC50 (HEK293 cells [3]; HEK293, HEK293 ABCC4ΔC): 1.5 µM
- IC50 (HEK293 cells [3]; HEK293, HEK293 Ctrl (empty vector)): 1.4 µM
- IC50 (MO7e cells [4]; MO7e ABCC4 KO): 23.9 µM
- IC50 (MO7e cells [4]; MO7e DKO): 21.5 µM
- IC50 (MO7e cells [4]; MO7e MPP1 KO): 20 µM
- IC50 (MO7e cells [4]; MO7e parental): 27.2 µM
- etoposide sensitivity of knock-out strains (MO7e cells [4]; MO7e ABCC4 KO, MPP1 KO, DKO, in words): did not affect etoposide sensitivity; also recorded: equally sensitive to etoposide

Molecule: Nc1ccn([C@@H]2O[C@H](CO)[C@@H](O)[C@@H]2O)c(=O)n1 [cytarabine, cytosine arabinoside]
- cytarabine response of primary AML cells ([5]; one primary AML patient sample, in culture and in vivo (peer review file)): non-responsive
- cytarabine response of primary AML cells ([5]; the other patient sample (peer review file)): sensitive

Molecule: SNGQPSTLTIF-COOH (YGRKKRRQRRRSNGQPSTLTIF-OH) [ABCC4ΔC]
- effect of peptide on 6MP IC50 (HEK293 cells [1]; HEK293 co-expressing ABCC4 and MPP1, cell penetrating peptide (20 μM in methods; various amounts), 96 h, in words): without effect; also recorded: no effect on 6MP IC50 values
- effect of peptide on 6MP sensitivity (MO7e cells [6]): had no effect
- ABCC4 remaining at the membrane ([7]; cell penetrating peptide (TAT fused; 10 μM in Supplementary Fig. 4), n = 20 fields of view): > 80%
- effect on ABCC4 plasma membrane localization ([7]; in words, confocal microscopy): ineffective in relocalizing ABCC4
- effect on MPP1-driven methylcellulose replating [8]: incapable of suppressing MPP1-stimulated replating
- disruption of the MPP1 and ABCC4 protein interaction [9]: incapable of disrupting the MPP1 and ABCC4 protein interaction

B1: SH3 and GUK domain: SH3 and GUK domain of MPP1 (amino acids 162–466) (protein, UniProt Q00013 162-466, looked up, fragment)
chain: FMRAQFDYDPKKDNLIPCKEAGLKFATGDIIQIINKDDSNWWQGRVEGSSKESAGLIPSPELQEWRVASMAQSAPSEAPSCSPFGKKKKYKDKYLAKHSSIFDQLDVVSYEEVVRLPAFKRKTLVLIGASGVGRSHIKNALLSQNPEKFVYPVPYTTRPPRKSEEDGKEYHFISTEEMTRNISANEFLEFGSYQGNMFGTKFETVHQIHKQNKIAILDIEPQTLKIVRTAELSPFIVFIAPTDQGTQTEALQQLQKDSEAIRSQYAHYFDLSLVNNGVDETLKKLQEAFDQACSSPQWVPVSWVY
- immunoprecipitation of ABCC4 (ABCC4 (MO7e lysates)): incapable of immunoprecipitating ABCC4

B2: MPP1 N terminus: MPP1 N terminus, up to the PDZ domain (amino acids 1–83) (protein, UniProt Q00013 1-83, looked up, fragment)
chain: MTLKASEGESGGSMHTALSDLYLEHLLQKRSRPEAVSHPLNTVTEDMYTNGSPAPGSPAQVKGQEVRKVRLIQFEKVTEEPMG
- immunoprecipitation of ABCC4 (ABCC4 (MO7e lysates)): incapable of immunoprecipitating ABCC4
